Test results as given in patent publication US20250313535A1, “ALPHA 4 BETA 7 INTEGRIN MODULATORS AND USES THEREOF” (DICE MOLECULES SV, INC., priority 2022, published 2025).
Like-named read-outs stand apart in the source and are kept apart here.

Assays:
[1] = biological target: α4β7 integrin (Homo sapiens (Human), UniProt P13612+P26010); test: Integrin Adhesion Assay: Protocol 4 (MAdCAM-coated plate, RPMI-8866 cells with stable LOF mutation of the ITGB1 gene); format: cell-based
How it was run: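 RPMI-8866 cells with CRISPR/Cas9 knockout of ITGB1 (2×10^6/mL) were added to MAdCAM-coated wells with compound (1% DMSO) in HEPES/NaCl buffer with 1 mM MnCl2, 0.1 mM CaCl2 and 1% BSA, then incubated 1 h at 37 °C. After four washes, adherent cells were quantified by CellTiter-Glo luminescence. Percent inhibition versus DMSO and control compound was fitted to 4-parameter curves.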

[2] = biological target: α4β1 integrin (Homo sapiens (Human), UniProt P05556+P13612); test: Integrin Adhesion Assay: Protocol 5 (VCAM-coated plate, RPMI-8866 cells with stable LOF mutation of the ITGB7 gene); format: cell-based
Chain of α4β1 integrin (P13612 34-1032): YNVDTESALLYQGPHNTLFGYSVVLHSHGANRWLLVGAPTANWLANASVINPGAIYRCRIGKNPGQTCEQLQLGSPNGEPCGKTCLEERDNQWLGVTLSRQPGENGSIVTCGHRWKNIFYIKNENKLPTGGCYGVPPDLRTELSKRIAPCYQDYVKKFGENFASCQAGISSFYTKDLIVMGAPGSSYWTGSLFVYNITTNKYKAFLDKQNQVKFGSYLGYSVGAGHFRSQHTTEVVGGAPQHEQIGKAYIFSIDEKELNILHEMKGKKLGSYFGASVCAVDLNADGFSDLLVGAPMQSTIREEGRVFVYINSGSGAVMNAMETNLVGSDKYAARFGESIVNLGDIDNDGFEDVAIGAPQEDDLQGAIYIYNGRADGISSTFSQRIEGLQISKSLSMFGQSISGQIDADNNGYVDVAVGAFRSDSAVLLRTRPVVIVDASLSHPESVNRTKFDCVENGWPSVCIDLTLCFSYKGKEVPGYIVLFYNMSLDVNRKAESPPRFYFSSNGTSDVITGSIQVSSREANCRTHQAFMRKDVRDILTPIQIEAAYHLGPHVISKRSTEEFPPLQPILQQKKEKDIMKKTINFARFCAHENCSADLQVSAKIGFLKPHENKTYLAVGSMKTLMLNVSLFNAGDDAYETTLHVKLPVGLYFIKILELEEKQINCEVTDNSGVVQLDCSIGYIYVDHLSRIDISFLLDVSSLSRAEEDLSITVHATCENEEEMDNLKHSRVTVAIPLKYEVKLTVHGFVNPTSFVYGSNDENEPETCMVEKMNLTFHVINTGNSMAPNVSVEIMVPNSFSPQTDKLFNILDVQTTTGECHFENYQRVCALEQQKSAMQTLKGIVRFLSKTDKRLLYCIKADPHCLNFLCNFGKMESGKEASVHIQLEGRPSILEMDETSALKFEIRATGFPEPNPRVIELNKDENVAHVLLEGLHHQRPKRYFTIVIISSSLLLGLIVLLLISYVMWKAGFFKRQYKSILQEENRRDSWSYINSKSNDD
Chain of α4β1 integrin (P05556 21-798): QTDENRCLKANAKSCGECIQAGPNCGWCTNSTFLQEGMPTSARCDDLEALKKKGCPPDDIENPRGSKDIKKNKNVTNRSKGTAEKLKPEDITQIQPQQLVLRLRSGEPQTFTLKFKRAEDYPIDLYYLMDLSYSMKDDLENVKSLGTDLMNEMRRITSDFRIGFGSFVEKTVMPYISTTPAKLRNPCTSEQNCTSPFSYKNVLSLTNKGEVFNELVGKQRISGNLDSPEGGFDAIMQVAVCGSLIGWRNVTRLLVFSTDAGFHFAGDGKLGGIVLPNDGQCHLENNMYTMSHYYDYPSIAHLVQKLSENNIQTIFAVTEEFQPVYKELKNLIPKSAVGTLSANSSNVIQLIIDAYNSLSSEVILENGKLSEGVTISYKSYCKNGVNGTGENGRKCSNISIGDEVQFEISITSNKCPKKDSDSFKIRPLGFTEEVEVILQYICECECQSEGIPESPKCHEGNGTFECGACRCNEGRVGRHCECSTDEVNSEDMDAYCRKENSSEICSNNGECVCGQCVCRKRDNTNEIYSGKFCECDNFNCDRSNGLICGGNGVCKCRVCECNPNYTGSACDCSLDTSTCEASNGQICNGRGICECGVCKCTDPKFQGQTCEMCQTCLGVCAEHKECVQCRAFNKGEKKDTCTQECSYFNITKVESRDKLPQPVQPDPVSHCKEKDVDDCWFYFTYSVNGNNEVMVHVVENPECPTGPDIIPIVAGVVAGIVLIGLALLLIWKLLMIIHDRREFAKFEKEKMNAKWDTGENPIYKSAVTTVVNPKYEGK
How it was run: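 RPMI-8866 B cells with CRISPR/Cas9 ITGB7 knockout (clonal, verified by flow cytometry) adhered to VCAM-coated wells for 1 h at 37° C in HEPES/NaCl buffer with 1 mM MnCl2, 0.1 mM CaCl2, 1% BSA, 1% DMSO. Bound cells quantified by CellTiter-Glo luminescence after washing; % inhibition versus DMSO and control, 4-parameter fit.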

[3] = Protocol 4, RPMI-8866 cells with LOF mutation of ITGB1, MAdCAM, read-out: Mean IC50 α4β7 KO
[4] = Protocol 5, RPMI-8866 cells with LOF mutation of ITGB7, VCAM, read-out: Mean IC50 α4β1 KO
[5] = RPMI-8866 cells with stable LOF mutation of the ITGB1 gene, read-out: Mean IC50 α4β7 KO^a
[6] = RPMI-8866 cells with stable LOF mutation of the ITGB7 gene, read-out: Mean IC50 α4β1 KO^b

Chain of α4β7 integrin (P13612 34-1032): as the sequence (P13612 34-1032) above
Chain of α4β7 integrin (P26010 20-798): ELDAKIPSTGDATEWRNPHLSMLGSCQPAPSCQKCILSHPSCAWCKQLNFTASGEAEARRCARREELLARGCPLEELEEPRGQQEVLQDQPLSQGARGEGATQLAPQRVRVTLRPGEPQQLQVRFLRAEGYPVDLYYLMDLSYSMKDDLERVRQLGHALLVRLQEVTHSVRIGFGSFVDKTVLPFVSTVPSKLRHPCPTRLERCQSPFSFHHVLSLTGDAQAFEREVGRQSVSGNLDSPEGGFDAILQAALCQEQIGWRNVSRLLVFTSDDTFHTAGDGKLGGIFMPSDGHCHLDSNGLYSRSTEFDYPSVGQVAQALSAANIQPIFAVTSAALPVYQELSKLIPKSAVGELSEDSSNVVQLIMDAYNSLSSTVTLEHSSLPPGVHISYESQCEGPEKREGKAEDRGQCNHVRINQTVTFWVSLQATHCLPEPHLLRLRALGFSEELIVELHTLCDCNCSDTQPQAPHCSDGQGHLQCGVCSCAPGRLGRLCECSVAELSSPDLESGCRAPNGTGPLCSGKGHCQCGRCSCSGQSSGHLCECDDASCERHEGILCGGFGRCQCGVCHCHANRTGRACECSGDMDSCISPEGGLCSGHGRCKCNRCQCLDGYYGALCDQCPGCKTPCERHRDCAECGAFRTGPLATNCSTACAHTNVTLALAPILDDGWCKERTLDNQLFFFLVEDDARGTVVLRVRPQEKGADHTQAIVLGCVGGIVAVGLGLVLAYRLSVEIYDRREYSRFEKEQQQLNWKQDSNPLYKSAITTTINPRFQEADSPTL

| SMILES | IC50 [1, 3] | IC50 [2, 4] | IC50 [1, 5] | IC50 [2, 6] |
| --- | --- | --- | --- | --- |
| O=C(O)[C@H](Cc1cccc2c(-c3ncc(CN4CCC(C(F)(F)F)CC4)c4ccccc34)cccc12)NC(=O)C1(C(F)(F)F)CCN(CC(F)(F)F)CC1 [Compound 874] | 10 to 100 nM | > 1000 nM |  |  |
| COc1cc(CN2CCCCC2)cc(OC)c1-c1cccc2c(C[C@H](NC(=O)C3(C(F)(F)F)CCN(CC(F)(F)F)CC3)C(=O)O)cccc12 [Compound 794] | < 10 nM | 100 to 1000 nM |  |  |
| COc1ccc(CN2CC3CCCCC3C2)c(OC)c1-c1cccc2c(C[C@H](NC(=O)C3(C(F)(F)F)CCN(CC(F)(F)F)CC3)C(=O)O)cccc12 (stereo partly shown) [Compound 811] | < 10 nM | > 1000 nM |  |  |
| O=C(O)[C@H](Cc1cccc2c(-c3ccc(CN4CCCCC4)cn3)cccc12)NC(=O)C1(C(F)(F)F)CCN(CC(F)(F)F)CC1 [Compound 903] | 10 to 100 nM | > 1000 nM |  |  |
| COc1cccc(CCN2CCC[C@@H](F)C2)c1-c1cccc2c(C[C@H](NC(=O)C3(C(F)(F)F)CCN(CC(F)(F)F)CC3)C(=O)O)cccc12 [Compound 985] | < 10 nM | 100 to 1000 nM |  |  |
| COc1c(CN2CCCCC2)ccnc1-c1cccc2c(C[C@H](NC(=O)c3c(C)cccc3F)C(=O)O)cccc12 [Compound 1020] | 10 to 100 nM | > 1000 nM |  |  |
| COc1cc(CN2CCC(C)(C)CC2)cnc1-c1cccc2c(C[C@H](NC(=O)c3c(C)cccc3F)C(=O)O)cccc12 [Compound 1005] | 10 to 100 nM | > 1000 nM |  |  |
| O=C(O)[C@H](Cc1cccc2c(-c3nccc4ccccc34)cccc12)NC(=O)C1(C(F)(F)F)CCN(C2COC2)CC1 [Compound 497] |  |  | < 10 nM | > 1000 nM |
| Cn1c(=O)c(-c2cccc3c(C[C@H](NC(=O)C4(C(F)(F)F)CCN(C5CCOCC5C(F)(F)F)CC4)C(=O)O)cccc23)c(C(F)(F)F)c2ccccc21 (stereo partly shown) [Compound 511] |  |  | 10 to 100 nM | > 1000 nM |
| CC1(C)CCCN(Cc2cnc(-c3cccc4c(C[C@H](NC(=O)C5(C(F)(F)F)CCN(CC(F)F)CC5)C(=O)O)cccc34)c3ccccc23)C1 [Compound 910] | < 10 nM | > 1000 nM |  |  |
| COc1cc(CN2CCCCC2)cc(C(F)(F)F)c1-c1cccc2c(C[C@H](NC(=O)c3c(C)cccc3F)C(=O)O)cccc12 [Compound 1023] | < 10 nM | 100 to 1000 nM |  |  |
| COc1ccc(CN2CCC(F)(F)CC2)c(OC)c1-c1cccc2c(C[C@H](NC(=O)C3(C(F)(F)F)CCN([C@H]4COC[C@H]4F)CC3)C(=O)O)cccc12 [Compound 573] |  |  | < 10 nM | > 1000 nM |
| O=C(O)[C@H](Cc1cccc2c(-c3nccc4c(CN5CCC(F)(F)C5)cccc34)cccc12)NC(=O)C1(C(F)(F)F)CCN(C2COC2)CC1 [Compound 595] |  |  | < 10 nM | 100 to 1000 nM |
| COc1ccc(CN2CCC(C)(C)CC2)c(C(F)(F)F)c1-c1cccc2c(C[C@H](NC(=O)C3(C(F)(F)F)CCN(CC(F)(F)F)CC3)C(=O)O)cccc12 [Compound 819] | < 10 nM | 100 to 1000 nM |  |  |
| COc1ccc(CN2CC[C@@H](F)C2)cc1-c1cccc2c(C[C@H](NC(=O)C3(C(F)(F)F)CCN(CC(F)F)CC3)C(=O)O)cccc12 [Compound 944] | < 10 nM | 100 to 1000 nM |  |  |
| COc1ccc(CN(C)C)c(OC(F)(F)F)c1-c1cccc2c(C[C@H](NC(=O)c3c(C)cccc3F)C(=O)O)cccc12 [Compound 703] | < 10 nM | 100 to 1000 nM |  |  |
| COc1cc(CN2CCC(F)CC2)cc(OC)c1-c1cccc2c(C[C@H](NC(=O)C3(C(F)(F)F)CCN(CC(F)(F)F)CC3)C(=O)O)cccc12 [Compound 851] | < 10 nM | 100 to 1000 nM |  |  |
| O=C(O)[C@H](Cc1cccc2c(-c3ncc(CN4CCC5(CCC5)C4)c4ccccc34)cccc12)NC(=O)C1(C(F)(F)F)CCN(CC(F)F)CC1 [Compound 909] | < 10 nM | 100 to 1000 nM |  |  |
| O=C(O)[C@H](Cc1cccc2c(-c3ncc(CN4CCC(C(F)(F)F)CC4)c4ccccc34)cccc12)NC(=O)C1(C(F)(F)F)CCN(CC(F)F)CC1 [Compound 879] | 10 to 100 nM | > 1000 nM |  |  |
| COc1ccc(CN2C(C)CCC2C)c(OC)c1-c1cccc2c(C[C@H](NC(=O)c3c(C)cccc3F)C(=O)O)cccc12 (stereo partly shown) [Compound 635] |  |  | 10 to 100 nM | > 1000 nM |
| COc1ccc(CN2CCC(c3ccncc3)CC2)c(OC)c1-c1cccc2c(C[C@H](NC(=O)C3(C(F)(F)F)CCN(CC(F)(F)F)CC3)C(=O)O)cccc12 [Compound 808] | < 10 nM | 100 to 1000 nM |  |  |
| COc1ccc(CN2CCC[C@@H](F)C2)c(OC)c1-c1cccc2c(C[C@H](NC(=O)c3c(C)cccc3F)C(=O)O)cccc12 [Compound 672] |  |  | < 10 nM | 100 to 1000 nM |

| SMILES | IC50 [1, 3] | IC50 [2, 4] | IC50 [1, 5] | IC50 [2, 6] |
| --- | --- | --- | --- | --- |
| COc1cccc(CN2CCCCC2)c1-c1cccc2c(C[C@H](NC(=O)c3c(F)cccc3C(F)(F)F)C(=O)O)cccc12 [Compound 542] |  |  | < 10 nM | 100 to 1000 nM |
| COC(=O)[C@H](Cc1cccc2c(-c3ncc(CN(C)C)c4ccccc34)cccc12)NC(=O)C1(C(F)(F)F)CCN(CC(F)F)CC1 [Compound 778] | < 10 nM | 100 to 1000 nM |  |  |
| O=C(O)[C@H](Cc1cccc2c(-c3ncc(CN4CCC4)c4ccccc34)cccc12)NC(=O)C1(C(F)(F)F)CCN(CC(F)F)CC1 [Compound 920] | < 10 nM | > 1000 nM |  |  |
| Cn1c(=O)c(-c2cccc3c(C[C@H](NC(=O)C4(C(F)(F)F)CCN(C5COC(C(F)(F)F)C5)CC4)C(=O)O)cccc23)c(C(F)(F)F)c2ccccc21 (stereo partly shown) [Compound 507] |  |  | 100 to 1000 nM | > 1000 nM |
| COc1ccc(CN2CCC(F)(F)CC2)c(OC)c1-c1cccc2c(C[C@H](NC(=O)c3c(C)cc4cnn(CC(F)(F)F)c4c3F)C(=O)O)cccc12 [Compound 609] |  |  | 10 to 100 nM | 100 to 1000 nM |
| CCOCc1cc(OC)c(-c2cccc3c(C[C@H](NC(=O)C4(C(F)(F)F)CCN(C5COC5)CC4)C(=O)O)cccc23)c(OC)c1 [Compound 498] |  |  | < 10 nM | 100 to 1000 nM |
| CCOCc1cc(OC)c(-c2cccc3c(C[C@H](NC(=O)C4(C(F)(F)F)CCN(CC(F)(F)F)CC4)C(=O)O)cccc23)cc1CN1CCCCC1 [Compound 768] | < 10 nM | 100 to 1000 nM |  |  |
| COc1ccc2cccnc2c1-c1cccc2c(C[C@H](NC(=O)c3c(F)cccc3F)C(=O)O)cccc12 [Compound 501] |  |  | 100 to 1000 nM | > 1000 nM |
| COc1cc2c(c(OC)c1-c1cccc3c(C[C@H](NC(=O)c4c(C)cccc4F)C(=O)O)cccc13)CN(C)CC2 [Compound 473] |  |  | < 10 nM | 100 to 1000 nM |
| COc1ccc(CN2CCC(c3ccccc3)CC2)c(OC)c1-c1cccc2c(C[C@H](NC(=O)C3(C(F)(F)F)CCN(CC(F)(F)F)CC3)C(=O)O)cccc12 [Compound 807] | < 10 nM | > 1000 nM |  |  |
| Cc1cccc(F)c1C(=O)N[C@@H](Cc1cccc2c(-c3c(C(F)(F)F)c4cc(CCN5CCC(F)(F)CC5)ccc4n(C)c3=O)cccc12)C(=O)O [Compound 714] | 10 to 100 nM | > 1000 nM |  |  |
| CN(C)Cc1ccc2c(C(F)(F)F)c(-c3cccc4c(C[C@H](NC(=O)C5(C(F)(F)F)CCN(CC(F)(F)F)CC5)C(=O)O)cccc34)c(=O)n(C)c2c1 [Compound 476] |  |  | < 10 nM | 100 to 1000 nM |
| Cn1c(=O)c(-c2cccc3c(C[C@H](NC(=O)C4(C(F)(F)F)CCN(C5COCC5C(F)(F)F)CC4)C(=O)O)cccc23)c(C(F)(F)F)c2ccccc21 (stereo partly shown) [Compound 513] |  |  | 10 to 100 nM | > 1000 nM |
| CN(C)CCc1cc(-c2cccc3c(C[C@H](NC(=O)C4(C(F)(F)F)CCN(CC(F)(F)F)CC4)C(=O)O)cccc23)c2cnccc2c1 [Compound 469] |  |  | 10 to 100 nM | 100 to 1000 nM |
| CC[C@H]1CCCCN1Cc1cnc(-c2cccc3c(C[C@H](NC(=O)C4(C(F)(F)F)CCN(CC(F)F)CC4)C(=O)O)cccc23)c2ccccc12 [Compound 930] | < 10 nM | 100 to 1000 nM |  |  |
| O=C(O)[C@H](Cc1cccc2c(-c3nccc4c(CN5CCC(F)(F)C5)cccc34)cccc12)NC(=O)C1(C(F)(F)F)CCN(CC(F)(F)F)CC1 [Compound 594] |  |  | 10 to 100 nM | > 1000 nM |
| COc1cc(CN2CCCCC2)cc(Cl)c1-c1cccc2c(C[C@H](NC(=O)C3(C(F)(F)F)CCN(CC(F)(F)F)CC3)C(=O)O)cccc12 [Compound 804] | < 10 nM | 100 to 1000 nM |  |  |
| COc1ccc(CN2CCC(F)(F)CC2)c(OC)c1-c1cccc2c(C[C@H](NC(=O)c3c(C)cc(NCC(F)(F)F)cc3F)C(=O)O)cccc12 [Compound 608] |  |  | 10 to 100 nM | > 1000 nM |
| O=C(O)[C@H](Cc1cccc2c(-c3nccc4ccc(CCCN5CCCCC5)cc34)cccc12)NC(=O)C1(C(F)(F)F)CCNCC1 [Compound 549] |  |  | < 10 nM | > 1000 nM |
| O=C(O)[C@H](Cc1cccc2c(-c3ccc(CN4CCCCC4)c4ccncc34)cccc12)NC(=O)C1(C(F)(F)F)CCN(CC(F)(F)F)CC1 [Compound 702] | < 10 nM | > 1000 nM |  |  |
| Cn1c(=O)c(-c2cccc3c(C[C@H](NC(=O)C4(C)CCC5(CCOCC5)CC4)C(=O)O)cccc23)c(C(F)(F)F)c2ccccc21 [Compound 522] |  |  | 10 to 100 nM | > 1000 nM |
| CCCN1CCC(C(=O)N[C@@H](Cc2cccc3c(-c4c(C(F)(F)F)c5ccccc5n(C)c4=O)cccc23)C(=O)O)(C(F)(F)F)CC1 [Compound 535] |  |  | 10 to 100 nM | > 1000 nM |
